From patent US9139578B2 (BRISTOL-MYERS SQUIBB COMPANY, priority 2012, dated 2015)

Target: endothelial lipase (EL) (Homo sapiens (Human), UniProt Q9Y5X9)
Test: Endothelial lipase (EL) enzymatic assay with fluorescent substrate A10070 in DMPG vesicles
Format: biochemical
Details: conditioned media from HT-1080 cells overexpressing endogenous EL; 20 min preincubation at 37° C.
Method: Endothelial lipase activity was measured using a fluorescent substrate, A10070, (Invitrogen, CA) doped into an artificial vesicle containing DMPG (Avanti Polar Lipids) as the excipient. Vesicles were prepared by combining 285 μL, of 1 mM DMPG in a 1:1 mixture of MeOH and CHCl3 with 15 μL, of 1 mM A10070 in a 1:1 mixture of MeOH and CHCl3. The mixture was dried under nitrogen and resuspended in 150 μL, of 50 mM HEPES pH 8.0 buffer containing 100 mM NaCl and 0.2 mM EDTA. The sample was allowed to sit at rt for 15 min and then was sonicated 3×4 mins on ice with a Branson Sonicator using duty cycle 1. This preparation provides vesicles with a mole fraction of 0.05 for the FRET substrate.
The enzymatic assay was measured using white, opaque 96-well half area plates. Each well contained 60 μL, of assay buffer (50 mM HEPES pH 8.0, 50 mM NaCl and 1 mM CaCl2) and 2 ul of a DMSO solution containing compound of interest. Conditioned media obtained from HT-1080 cells, which were transformed by RAGE technology (Athersys) to overexpress endogenous EL, was added and the reaction was allowed to incubate for 20 min at 37° C. with gentle agitation. The reaction was started by the addition of 20 μL, of a 1:4 dilution of vesicles. The final total reaction volume was 100 μL. The reaction rates were measured on a Gemini plate reader with an excitation wavelength of 488 nm and an emission of 530 nm. Readings were taken every 20 seconds for 10 min with agitation between each reading. The slope of the linear portion of the readout was used to calculate the rate of the reaction.

Sequence of endothelial lipase (EL) (Q9Y5X9 21-500): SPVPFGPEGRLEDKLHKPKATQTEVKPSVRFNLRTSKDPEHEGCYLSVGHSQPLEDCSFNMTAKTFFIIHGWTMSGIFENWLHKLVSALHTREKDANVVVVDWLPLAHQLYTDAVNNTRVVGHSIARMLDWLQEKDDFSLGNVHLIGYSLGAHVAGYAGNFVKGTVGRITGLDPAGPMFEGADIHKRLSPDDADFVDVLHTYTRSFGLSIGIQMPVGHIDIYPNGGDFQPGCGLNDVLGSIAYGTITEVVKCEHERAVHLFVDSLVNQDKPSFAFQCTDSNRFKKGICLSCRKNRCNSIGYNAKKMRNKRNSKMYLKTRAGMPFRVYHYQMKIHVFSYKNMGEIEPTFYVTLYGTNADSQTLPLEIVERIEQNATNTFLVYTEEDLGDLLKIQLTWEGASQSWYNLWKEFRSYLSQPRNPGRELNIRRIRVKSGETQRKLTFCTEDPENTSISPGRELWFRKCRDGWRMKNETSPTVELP

| Compound | IC50 [nM] |
| --- | --- |
| O=C1NC(=O)C(Cc2nnc(C(NC(=O)c3ccc(C(F)(F)F)cc3)c3nc4ccc(-c5ccc(F)nc5)cc4s3)o2)S1 (centres unmarked) [Example 1, N-((5-((2,4-dioxothiazolidin-5-yl)methyl)-1,3,4-oxadiazol-2-yl)(6-(6-fluoropyridin-3-yl)benzo[d]thiazol-2-yl)methyl)-4-(trifluoromethyl)benzamide] | < 10 |
| NS(=O)(=O)NCc1nnc(C(NC(=O)c2ccc(C(F)(F)F)cc2)c2nc3ccc(-c4ccc(F)nc4)cc3s2)o1 (centres unmarked) [Example 2, N-((6-(6-fluoropyridin-3-yl)benzo[d]-thiazol-2-yl)(5-((sulfamoyl-amino)-methyl)-1,3,4-oxadiazol-2-yl)methyl)-4-(trifluoro-methyl)-benzamide] | < 10 |
| NS(=O)(=O)NCc1nnc(C(NC(=O)c2cccnc2)c2nc3ccc(-c4ccc(F)nc4)cc3s2)o1 (centres unmarked) [Example 3, N-((6-(6-fluoropyridin-3-yl)benzo[d]-thiazol-2-yl)(5-((sulfamoyl-amino)-methyl)-1,3,4-oxadiazol-2-yl)methyl)-nicotinamide] | < 10 |
| NS(=O)(=O)NCc1nnc(C(NC(=O)NCc2ccccc2)c2nc3ccc(-c4ccc(F)nc4)cc3s2)o1 (centres unmarked) [Example 4, 1-benzyl-3-((6-(6-fluoro-3-pyridinyl)-1,3-benzothiazol-2-yl)(5-((sulfamoyl-amino)-methyl)-1,3,4-oxadiazol-2-yl)methyl)urea] | < 10 |
| CCC(=O)NC(c1nnc(CNS(N)(=O)=O)o1)c1nc2ccc(-c3ccc(F)nc3)cc2s1 (centres unmarked) [Example 5, N-((6-(6-fluoropyridin-3-yl)benzo[d]-thiazol-2-yl)(5-M-((sulfamoyl-amino)-methyl)-1,3,4-oxadiazol-2-yl)methyl)-propionamide] | < 10 |
| CCOC(=O)CNC(=O)NC(c1nnc(CNS(N)(=O)=O)o1)c1nc2ccc(-c3ccc(F)nc3)cc2s1 (centres unmarked) [Example 6, ethyl 2-(3-((6-(6-fluoropyridin-3-yl)benzo[d]-thiazol-2-yl)(5-((sulfamoyl-amino)-methyl)-1,3,4-oxadiazol-2-yl)methyl)-ureido)acetate] | < 10 |
| NS(=O)(=O)NCc1nnc(C(NC(=O)Nc2ccc(F)cc2)c2nc3ccc(-c4ccc(F)nc4)cc3s2)o1 (centres unmarked) [Example 7, 1-(4-fluoro-phenyl)-3-((6-(6-fluoro-3-pyridinyl)-1,3-benzothiazol-2-yl)(5-((sulfamoyl-amino)-methyl)-1,3,4-oxadiazol-2-yl)methyl)urea] | < 10 |
| Cc1noc(C)c1NC(=O)NC(c1nnc(CNS(N)(=O)=O)o1)c1nc2ccc(-c3ccc(F)nc3)cc2s1 (centres unmarked) [Example 8, 1-(3,5-dimethyl-4-isoxazolyl)-3-((6-(6-fluoro-3-pyridinyl)-1,3-benzothiazol-2-yl)(5-((sulfamoyl-amino)-methyl)1,3,4-oxadiazol-2-yl)methyl)urea] | < 10 |
| CC(=O)NC(c1nnc(CC2SC(=O)NC2=O)o1)c1nc2ccc(-c3ccc(F)nc3)cc2s1 (centres unmarked) [Example 9, N-((5-((2,4-dioxo-thiazolidin-5-yl)methyl)-1,3,4-oxadiazol-2-yl)-(6-(6-fluoropyridin-3-yl)benzo[d]-thiazol-2-yl)-methyl)-acetamide] | < 10 |
| CC(=O)NC(c1nnc(CNS(N)(=O)=O)o1)c1nc2ccc(-c3ccc(F)nc3)cc2s1 (centres unmarked) [Example 10, N-((6-(6-fluoropyridin-3-yl)benzo[d]-thiazol-2-yl)(5-((sulfamoyl-amino)-methyl)-1,3,4-oxadiazol-2-yl)methyl)-acetamide] | < 10 |

The next lines start with the values.

| IC50 [nM] | Compound |
| --- | --- |
| < 10 | CC(=O)NC(c1nnc(CC2SC(=O)NC2=O)o1)c1nc2ccc(-c3ccnn3C)cc2s1 (centres unmarked) [Example 11, N-((5-((2,4-dioxo-thiazolidin-5-yl)methyl)-1,3,4-oxadiazol-2-yl)(6-(1-methyl-1H-pyrazol-5-yl)benzo[d]-thiazol-2-yl)methyl)-acetamide] |
| < 10 | CC(=O)NC(c1nnc(CNS(N)(=O)=O)o1)c1nc2ccc(-c3ccccc3)cc2s1 (centres unmarked) [Example 12, N-((6-phenylbenzo[d]thiazol-2-yl)(5-((sulfamoylamino)methyl)-1,3,4-oxadiazol-2-yl)methyl)acetamide] |
| < 10 | CC(C)C(=O)NC(c1nnc(CNS(N)(=O)=O)o1)c1nc2ccc(-c3ccccc3)cc2s1 (centres unmarked) [Example 13, N-((6-phenylbenzo[d]-thiazol-2-yl)(5-((sulfamoylamino)-methyl)-1,3,4-oxadiazol-2-yl)methyl)-isobutyramide] |
| < 10 | CC(C)NC(=O)NC(c1nnc(CNS(N)(=O)=O)o1)c1nc2ccc(-c3ccccc3)cc2s1 (centres unmarked) [Example 15, 1-isopropyl-3-((6-phenyl-1,3-benzothiazol-2-yl)(5-((sulfamoylamino)-methyl)-1,3,4-oxadiazol-2-yl)methyl)urea] |
| < 10 | NS(=O)(=O)NCc1nnc(C(NC(=O)c2ccc(C(F)(F)F)cc2)c2nc3ccc(-c4ccccc4)cc3s2)o1 (centres unmarked) [Example 16, N-((6-phenylbenzo[d]-thiazol-2-yl)(5-((sulfamoylamino)-methyl)-1,3,4-oxadiazol-2-yl)methyl)-4-(trifluoromethyl)-benzamide] |
| < 10 | CC(=O)NC(c1nnc(CNC(=O)OC(C)(C)C)o1)c1nc2ccc(-c3ccccc3)cc2s1 (centres unmarked) [Example 17, tert-butyl ((5-(acetamido(6-phenylbenzo[d]-thiazol-2-yl)methyl)-1,3,4-oxadiazol-2-yl)methyl)-carbamate] |
| < 10 | O=C(NC(c1nnc(CS(=O)(=O)O)o1)c1nc2ccc(-c3ccccc3)cc2s1)C1CC1 (centres unmarked) [Example 18, (5-(cyclopropane-carboxamido-(6-phenylbenzo[d]-thiazol-2-yl)methyl)-1,3,4-oxadiazol-2-yl)methanesulfonic acid] |
| < 10 | O=C1NC(=O)C(Cc2nnc(C(NC(=O)C3CC3)c3nc4c(F)cc(-c5ccccc5)cc4s3)o2)S1 (centres unmarked) [Example 21] |
| < 10 | O=C1NC(=O)C(Cc2nnc(C(NC(=O)c3ccc(C(F)(F)F)cc3)c3nc4c(F)cc(-c5ccccc5)cc4s3)o2)S1 (centres unmarked) [Example 22] |
| 131 | CC(=O)NC(c1nnc(CC2(C)NC(=O)NC2=O)o1)c1nc2ccc(-c3ccc(C(=O)N4CCOCC4)cc3)cc2s1 (centres unmarked) [Example 23, N-((5-((4-methyl-2,5-dioxoimidazolidin-4-yl)methyl)-1,3,4-oxadiazol-2-yl)(6-(4-(morpholine-4-carbonyl)phenyl)benzo[d]thiazol-2-yl)methyl)acetamide] |
| 25 | COc1nc(-c2nnc(C(NC(C)=O)c3nc4ccc(-c5ccccc5)cc4s3)o2)c(O)c(=O)[nH]1 (centres unmarked) [Example 24, N-((5-(5-hydroxy-2-methoxy-6-oxo-1,6-dihydropyrimidin-4-yl)-1,3,4-oxadiazol-2-yl)(6-phenylbenzo[d]thiazol-2-yl)methyl)acetamide] |
| 277 | CC(=O)NC(c1nnc(C2CNC2)o1)c1nc2ccc(-c3ccccc3)cc2s1 (centres unmarked) [Example 25, N-((5-(azetidin-3-yl)-1,3,4-oxadiazol-2-yl)(6-phenylbenzo[d]thiazol-2-yl)methyl)acetamide] |
| 17 | CC(=O)NC(c1nnc(C2CN(CC(C)(C)C)C2)o1)c1nc2ccc(-c3ccccc3)cc2s1 (centres unmarked) [Example 26, N-((5-(1-neopentylazetidin-3-yl)-1,3,4-oxadiazol-2-yl)(6-phenylbenzo[d]thiazol-2-yl)methyl)acetamide] |
